This note sets out measurements from publication PMC12133982, “Predominant T-cell epitopes of SARS-CoV-2 restricted by multiple prevalent HLA-B and HLA-C allotypes in Northeast Asia” (Frontiers in Immunology, 2025).

Values joined by “and” are separate entries in the source; they are usually repeats but may differ in a detail not shown here. Equal values may be shown once. Peptide text beside a SMILES is read from it.

The target of assay [1] is HLA-B4601 (Homo sapiens, UniProt P01889, A329T/A93R/C349S/D201E/E100V/E187L/E204Q/E69M/E70A/I90K/K202T/N87E/R155S/R180W/S121R/S35A/S48A/V306I/V36M/Y140S). The assay can be described thus: Competitive peptide binding assay, CIR-B4601. Conditions: for IC50: HMy2.CIR-B4601 cells, reference Cy5-[…], class from inhibition at 5 and 15 μM, flow cytometry MFI, read-out: Binding affinity with HLA-B4601. The method, then: (§1) Then, competitive peptide binding assays were performed.
For orientation: A flow cytometer gives signals particle by particle.

In assay [2] the target is HLA-B5801 (Homo sapiens, UniProt P01889, A329T/C349S/D201E/D98Y/E176V/E187L/E204Q/E69T/G107R/I218V/I90N/K202T/L105A/L119I/N104I/N87E/Q89R/Q94S/R106L/R155S/R180L/R86G/S101N/S121R/S35A/S48A/T118I/V127L/V306I/V36M/Y140S/Y91M). Nature of the assay: Competitive peptide binding assay, CIR-B5801. Conditions: HMy2.CIR-B5801 cells, reference Cy5-[…], class from inhibition at 5 and 15 μM, flow cytometry MFI; read-out: Binding affinity with HLA-B5801. As to the method:
as §1

Assay [3] has as its target HLA-B1301 (Homo sapiens, UniProt P01889, A65T/A93T/A95T/D138N/D201E/D98Y/E176V/E204Q/E69M/E70A/G107R/K202T/L105A/L119I/N104T/N87E/Q94N/R106L/R155S/R169L/R180L/S101N/S121R/S35A/S48T/T118I/V127L/V36M/Y140L/Y91S). The assay can be described thus: Competitive peptide binding assay, CIR-B1301. The settings on record: HMy2.CIR-B1301 cells, reference Cy5-[…], class from inhibition at 5 and 15 μM, flow cytometry MFI; read-out: Binding affinity with HLA-B1301. The method, then:
as §1

Assay [4] has as its target HLA-B1302 (Homo sapiens, UniProt P01889, A65T/A93T/A95T/D138N/D201E/D98Y/E176V/E204Q/E69M/E70A/G107R/K202T/L105A/L119W/N104T/N87E/Q94N/R106L/R155S/R169L/R180L/S101N/S121T/S35A/S48T/V127L/V36M/Y140L/Y91S). Nature of the assay: Competitive peptide binding assay, CIR-B1302. The settings on record: HMy2.CIR-B1302 cells, reference Cy5-MMWYWGPSL, class from inhibition at 5 and 15 μM, flow cytometry MFI; read-out: Binding affinity with HLA-B1302. As to the method: as §1

In assay [5] the target is HLA-B1501 (Homo sapiens, UniProt P01889, A329T/A93T/A95T/C349S/D201E/D98Y/E187L/E204Q/E69M/E70A/K202T/N87E/Q94N/R155S/R180W/S121R/S35A/S48A/V306I/V36M/Y140S/Y91S). Nature of the assay: Competitive peptide binding assay, CIR-B1501. The settings on record: HMy2.CIR-B1501 cells, reference Cy5-[…], class from inhibition at 5 and 15 μM, flow cytometry MFI; read-out: Binding affinity with HLA-B1501. As to the method:
as §1

In assay [6] the target is HLA-B3501 (Homo sapiens, UniProt P01889, A329T/A93T/A95T/C349S/D201E/D98Y/E176V/E187L/E204Q/E69T/I218V/K202T/L119I/Q94N/R155S/R180L/S121R/S35A/S48A/T118I/V127L/V306I/V36M/Y140S/Y91F). The assay can be described thus: Competitive peptide binding assay, CIR-B3501. Conditions: HMy2.CIR-B3501 cells, reference Cy5-[…], class from inhibition at 5 and 15 μM, flow cytometry MFI; read-out: Binding affinity with HLA-B3501. The method, then:
as §1

Assay [7] deals with T1, HLA-B0702 (Homo sapiens, UniProt P01889).
T1 construct: expressed in transfected cells; host or cells: HMy2.CIR
Nature of the assay: Competitive peptide binding assay, CIR-B0702. The settings on record: HMy2.CIR-B0702 cells, reference Cy5-[…], class from inhibition at 5 and 15 μM, flow cytometry MFI. The method, then:
as §1

The target in assay [8] is HLA-B1502 (Homo sapiens, UniProt P01889, A329T/A93T/A95T/C349S/D201E/D98Y/E187L/E204Q/E69M/E70A/H137Y/K202T/L119I/Q94N/R155S/R180L/S121R/S35A/S48A/T118I/V306I/V36M/Y140S/Y91S). Nature of the assay: Competitive peptide binding assay, CIR-B1502. Conditions: HMy2.CIR-B1502 cells, reference Cy5-[…], class from inhibition at 5 and 15 μM, flow cytometry MFI; read-out: Binding affinity with HLA-B1502. The method, then:
as §1

For assay [9], the target named is HLA-B4403 (Homo sapiens, UniProt P01889, A223V/A65T/A93T/A95T/D201E/D98Y/E176V/E187L/E204Q/E69K/G107R/H137Y/K202T/L105A/L119I/N104T/N87E/Q56L/Q94N/R106L/R155S/R180L/S101N/S121R/S35A/S48T/T118I/V36M/W191S/Y140D/Y91S). Nature of the assay: Competitive peptide binding assay, CIR-B4403. The settings on record: HMy2.CIR-B4403 cells, reference Cy5-CYMEAVAL, class from inhibition at 5 and 15 μM, flow cytometry MFI; read-out: Binding affinity with HLA-B4403. The method, then: as §1

Assay [10] has as its target HLA-B4001 (Homo sapiens, UniProt P01889, A65T/A93T/A95T/D138N/D98Y/E176V/E69K/N87E/Q56L/Q94N/R180L/S121R/S35A/S48T/T167S/V36M/W171L/Y33H/Y91S). Nature of the assay: Competitive peptide binding assay, CIR-B4001. Conditions: HMy2.CIR-B4001 cells, reference Cy5-[…], class from inhibition at 5 and 15 μM, flow cytometry MFI; read-out: Binding affinity with HLA-B4001. The method, then:
as §1

For the molecule `CC(C)C[C@H](NC(=O)[C@H](CC(C)C)NC(=O)[C@@H](NC(=O)[C@@H](NC(=O)[C@@H](NC(=O)[C@H](CCC(N)=O)NC(=O)[C@H](CCC(N)=O)NC(=O)[C@H](CCCCN)NC(=O)[C@@H](N)CCCCN)[C@@H](C)O)C(C)C)[C@@H](C)O)C(=O)O` [Epitope Y196] (H-KKQQTVTLL-OH; N-terminus and C-terminus assumed), the IC50 in [1] is less than 5 µM; in [2], more than 15 µM; in assay [3], more than 15 µM; in assay [4] it was 5 to 15 µM; in assay [5], more than 15 µM; in [6], more than 15 µM. For the same molecule, the IC50 in assay [7] is more than 15 µM.
In the case of `CC(C)C[C@H](NC(=O)[C@H](CC(C)C)NC(=O)[C@H](C)NC(=O)[C@H](CCC(N)=O)NC(=O)[C@H](CCCNC(=N)N)NC(=O)[C@@H](NC(=O)[C@H](CCCNC(=N)N)NC(=O)[C@H](CCC(=O)O)NC(=O)CN)C(C)C)C(=O)O` [Epitope Y202] (H-GERVRQALL-OH; N-terminus and C-terminus assumed), the IC50 in assay [1] is 5 to 15 µM; in assay [2], more than 15 µM; in [8], more than 15 µM; in assay [3] it was more than 15 µM; in assay [4], more than 15 µM; in [5] it was more than 15 µM. For the same molecule, the IC50 in assay [6] and in [7] was more than 15 µM each time.
As to `CC(C)C[C@H](NC(=O)[C@H](CC(=O)O)NC(=O)[C@H](C)NC(=O)[C@H](C)NC(=O)[C@@H]1CCCN1C(=O)[C@@H](N)CC(C)C)C(=O)N[C@@H](CC(=O)O)C(=O)N[C@@H](CC(=O)O)C(=O)N[C@@H](Cc1ccccc1)C(=O)O` [Epitope Y180] (H-LPAADLDDF-OH; N-terminus and C-terminus assumed), the IC50 in assay [1] was more than 15 µM; in [2], more than 15 µM; in assay [8] it was more than 15 µM; in assay [3], more than 15 µM; in assay [5], 5 to 15 µM; in assay [7], more than 15 µM.
As for `CSCC[C@H](NC(=O)[C@H](C)NC(=O)[C@@H](N)Cc1ccccc1)C(=O)N[C@@H](CCC(N)=O)C(=O)N[C@@H](CCSC)C(=O)N[C@@H](C)C(=O)N[C@@H](Cc1ccc(O)cc1)C(=O)N[C@@H](CCCNC(=N)N)C(=O)N[C@@H](Cc1ccccc1)C(=O)O` [Epitope Y189], the IC50 in assay [1] was less than 5 µM; in assay [2], more than 15 µM; in [8] it was more than 15 µM; in assay [3], 5 to 15 µM; in [5] it was more than 15 µM; in assay [6] it was 5 to 15 µM. The same molecule had an IC50 in assay [7] of less than 5 µM. Besides, the inhibition – broadly, how much of the control response was suppressed – at 5 µM in assay [1] (read-out: Inhibition % of Cy5-reference peptide binding, CIR-B4601, 5μM peptide) turned out to be 74.8%. In [1] (read-out: Inhibition % of Cy5-reference peptide binding, CIR-B4601, 15μM peptide), the inhibition at 15 µM is 92.9%.
For the molecule `CC(C)C[C@H](NC(=O)[C@H](CC(N)=O)NC(=O)[C@H](CCCCN)NC(=O)[C@@H](NC(=O)[C@H](CCCNC(=N)N)NC(=O)[C@H](CO)NC(=O)[C@H](Cc1ccc(O)cc1)NC(=O)[C@@H](NC(=O)[C@@H](N)Cc1ccc(O)cc1)C(C)C)C(C)C)C(=O)O` [Epitope Y3] (H-YVYSRVKNL-OH; N-terminus and C-terminus assumed), the IC50 in assay [1] was more than 15 µM; in assay [3], more than 15 µM; in [4] it was more than 15 µM; in assay [5], 5 to 15 µM; in assay [6], more than 15 µM; in assay [9], less than 5 µM.
Take `CSCC[C@H](NC(=O)[C@H](CO)NC(=O)[C@H](CCC(N)=O)NC(=O)[C@H](CCC(N)=O)NC(=O)[C@H](CC(C)C)NC(=O)[C@H](CCC(N)=O)NC(=O)[C@H](CCCCN)NC(=O)[C@H](CO)NC(=O)[C@@H](N)Cc1ccccc1)C(=O)O` [Epitope Y135] (H-FSKQLQQSM-OH; N-terminus and C-terminus assumed): the IC50 in assay [1] is less than 5 µM; in assay [2] it was 5 to 15 µM; in [3] it was more than 15 µM; in [5], less than 5 µM; in [6], more than 15 µM; in assay [7], 5 to 15 µM.
As to `CSCC[C@H](NC(=O)[C@H](C)NC(=O)[C@@H]1CCCN1C(=O)[C@H](CC(=O)O)NC(=O)[C@H](C)NC(=O)[C@H](C)NC(=O)[C@H](Cc1ccc(O)cc1)NC(=O)[C@@H](NC(=O)[C@@H](N)CC(C)C)C(C)C)C(=O)O` [Epitope Y165] (H-LVYAADPAM-OH; N-terminus and C-terminus assumed), the IC50 in [1] is 5 to 15 µM; in [10] it was more than 15 µM; in assay [2] it was more than 15 µM; in assay [8] it was 5 to 15 µM; in assay [3] it was 5 to 15 µM; in [5], more than 15 µM. The IC50 in [6] is less than 5 µM; in [7], 5 to 15 µM.
Regarding `CC[C@H](C)[C@H](NC(=O)[C@H](CC(C)C)NC(=O)[C@H](CCC(N)=O)NC(=O)[C@H](CCC(N)=O)NC(=O)[C@@H](NC(=O)[C@@H](NC(=O)[C@H](Cc1ccc(O)cc1)NC(=O)[C@@H](NC(=O)[C@H](CCC(N)=O)NC(=O)[C@@H](N)CC(C)C)[C@@H](C)O)C(C)C)[C@@H](C)O)C(=O)O` [Epitope Y118] (H-LQTYVTQQLI-OH; N-terminus and C-terminus assumed), the IC50 was more than 15 µM in [1]; more than 15 µM in assay [2]; more than 15 µM in assay [8]; < 5 µM and 5 to 15 µM in assay [4]; more than 15 µM in [6]; 5 to 15 µM in assay [9].
With `CC[C@H](C)[C@H](NC(=O)[C@@H](NC(=O)[C@H](CC(C)C)NC(=O)[C@H](CCC(=O)O)NC(=O)[C@H](CO)NC(=O)[C@H](CCC(=O)O)NC(=O)[C@@H](N)CC(C)C)C(C)C)C(=O)NCC(=O)N[C@@H](C)C(=O)N[C@H](C(=O)O)C(C)C` [Epitope Y211] (H-LESELVIGAV-OH; N-terminus and C-terminus assumed), the IC50 in assay [1] is more than 15 µM; in assay [10], 5 to 15 µM; in [2] it was more than 15 µM; in [8], more than 15 µM; in [3] it was more than 15 µM; in assay [4], more than 15 µM. Besides, the IC50 in assay [5] is 5 to 15 µM; in assay [6] it was more than 15 µM; in assay [7] it was more than 15 µM.
